Measurements from US6245816A, “Benzoylphenylurea insecticides and methods of using certain benzoylphenylureas to control ants” (priority 2000, dated 2001).

Key:
Type in all cases: in vivo
[1] = test system: Subterranean Termite (Reticulitermes flavipes); assay: Subterranean termite, continuous exposure (56 days) to treated paper; conditions: for LC50 (ppm) 56 days / LC50 (ppm) 35 days: continuous exposure to treated paper; for potency and speed of action relative to hexaflumuron: continuous exposure, in words
Source text: (§1) Subterranean Termite (Reticulitermes flavipes)
Continuous exposure (56 days) to treated paper

[2] = test system: German cockroach 2nd instars (Blittella germanica); assay: German cockroach 2nd instars, limited ingestion exposure (48 hr) to treated cornmeal; conditions: for potency relative to hexaflumuron: limited exposure, at both 21 and 42 days after exposure, in words
Source text: German cockroach 2nd instars (Blittella germanica)
Limited ingestion exposure (48 hr) to treated cornmeal

[3] = test system: Cat Flea (Ctenocephalides felis); assay: Cat flea, continuous exposure of larvae to treated media, impact on subsequent adult emergence; conditions: for efficacy relative to hexaflumuron: cat fleas, in words
Source text: Cat Flea (Ctenocephalides felis)
Continuous exposure of larvae to treated media, impact on subsequent adult emergence

[4] = test system: Pharaoh Ant (Monomorium pharionis); assay: Laboratory ant bait study, Pharaoh Ant, brood reduction; conditions: 0.1% in bait, 3-4 day exposure
Description: (§2) Laboratory ant bait studies were carried out with Red Imported Fire Ant (RIFA) (Solenopsis inivicta) and Pharaoh Ant (Monomorium pharionis). Chitin synthesis inhibitors, such as the compounds of the invention, control ants by killing the molting larvae and/or pupae and potentially preventing the hatching of eggs. Because adult workers are not affected, control is measured by effects on the brood. The studies involved 3-4 day exposure to bait. These limited exposure studies more accurately represent real world bait availability than continuous exposure.

[5] = test system: Subterranean Termite (Reticulitermes flavipes); assay: Subterranean termite, limited exposure (7 days), mortality at 14, 28, 42 and 56 days; conditions: high rate, in words
Source text: as §1
Limited exposure (7 days) with mortality determined at 14, 28, 42, and 56 days

[6] = test system: Red Imported Fire Ant (RIFA) (Solenopsis inivicta); assay: Laboratory ant bait study, Red Imported Fire Ant, brood reduction; conditions: for Time to Achieve 50% Brood Reduction / Time to Achieve 90% Brood Reduction: RIFA, 3-4 day exposure
Description: as §2

[7] = test system: German cockroach 2nd instars (Blattella germanica); assay: German cockroach 2nd instars, continuous, low-dose ingestion exposure (treated cornmeal); conditions: for activity relative to hexaflumuron: continuous exposure; for activity relative to hexaflumuron / activities in cockroaches (Compounds 1, 2, and 3 compared): in words; for LC50 (ppm) 21 days / LC50 (ppm) 42 days: continuous ingestion exposure, treated cornmeal; for activities in cockroaches (Compounds 1, 2, and 3 compared): test not specified further, all three compounds were tested only under continuous exposure
Source text: German cockroach 2nd instars (Blattella germanica)
Continuous, low-dose ingestion exposure (treated cornmeal)

[8] = test system: Daphnia; assay: Activity against Daphnia, 48 hr exposure to treated water
[9] = limited ingestion exposure (48 hr), treated cornmeal
[10] = continuous exposure of larvae to treated media, subsequent adult emergence
[11] = 0.1% in bait, NA = not achieved

SMILES | LC50 (ppm) 56 days [1] | potency and speed of action relative to hexaflumuron [1] | potency relative to hexaflumuron [2] | LC50 (ppm) 42 days [2, 9] | efficacy relative to hexaflumuron [3] | activity relative to hexaflumuron [7] | LC50 (ppm) 21 days [7] | LC50 (ppm) 42 days [7] | activities in cockroaches (Compounds 1, 2, and 3 compared) [7] | LC50 (ppm) 35 days [1] | further results
O=C(NC(=O)c1c(F)cccc1F)Nc1cc(Cl)c(OC(F)(F)C(F)C(F)(F)F)c(Cl)c1F (stereo not shown) [Compound 1, N-[3,5-Dichloro-2-fluoro-4-(1,1,2,3,3,3-hexafluoropropoxy)phenyl]-N'-(2,6-difluorobenzoyl)urea] | < 0.78 ppm | more potent and quicker acting than hexaflumuron | more potent than hexaflumuron | < 9.1 ppm | far more efficacious than hexaflumuron | far more active than hexaflumuron | < 2.2 ppm | < 0.78 ppm | quite similar | – | LC50 (ppm) [3, 10]: 2.8 ppm; LC90 (ppm) [3, 10]: 22 ppm; Percent brood reduction achieved at end of study ([4]; @ 13 wks): 70%; Time to Achieve 50% Brood Reduction ([4]; NA = not achieved): 4 wks; mortality relative to hexaflumuron [5]: induced more mortality earlier than did hexaflumuron; Time to Achieve 50% Brood Reduction [6, 11]: 2 wks; Time to Achieve 90% Brood Reduction [6, 11]: 3 wks; potency relative to hexaflumuron ([6]; short exposure study with RIFA, in words): significantly more potent than hexaflumuron
CCN(C(=O)NC(=O)c1c(F)cccc1F)c1cc(Cl)c(OC(F)(F)C(F)C(F)(F)F)c(Cl)c1F (stereo not shown) [Compound 2, N-[3,5-Dichloro-2-fluoro-4-(1,1,2,3,3,3-hexafluoropropoxy)phenyl]-N'-(2,6-difluorobenzoyl)-N-ethylurea] | < 0.78 ppm | more potent and quicker acting than hexaflumuron | more potent than hexaflumuron | – | far more efficacious than hexaflumuron | far more active than hexaflumuron | 0.35 ppm | 0.26 ppm | quite similar | < 0.78 ppm | activity against Daphnia relative to Compound 1 and hexaflumuron ([8]; in vivo): much less active against Daphnia than were Compound 1 and hexaflumuron
CCN(C(=O)Nc1cc(Cl)c(OC(F)(F)C(F)C(F)(F)F)c(Cl)c1F)C(=O)c1c(F)cccc1F (stereo not shown) [Compound 3, N-[3,5-Dichloro-2-fluoro-4-(1,1,2,3,3,3-hexafluoropropoxy)phenyl]-N'-(2,6-difluorobenzoyl)-N'-ethyl urea] | – | – | – | – | – | far more active than hexaflumuron | 8.0 ppm | 1.5 ppm | quite similar | – | activity against Daphnia relative to Compound 1 and hexaflumuron ([8]; in words): much less active against Daphnia than were Compound 1 and hexaflumuron
O=C(NC(=O)c1c(F)cccc1F)Nc1cc(Cl)c(OC(F)(F)C(F)F)c(Cl)c1 [hexaflumuron, reference compound] | 1.3 ppm | – | – | > 10,000 ppm | – | – | > 200 ppm | > 200 ppm | – | > 200 ppm | LC50 (ppm) 21 days ([2]; limited ingestion exposure (48 hr), treated cornmeal, 21 days): > 10,000 ppm; Time to Achieve 50% Brood Reduction ([6]; 0.25% in bait): 4 wks; Time to Achieve 90% Brood Reduction ([6]; 0.25% in bait): 10 wks
